In brackets after ≈: the same amount, converted by molar mass. Read-outs that look alike come from different tables or passages of the source.
Tests used:
Assay type in all cases: cell-based
[1] = system: Klebsiella pneumoniae (Kp); assay: Minimum inhibitory concentration (MIC) in nutrient agar, Klebsiella pneumoniae
Experimental: (§1) The antimicrobial activity of the compounds of the present invention is set forth as the minimum inhibitory concentration (MIC) for the active compounds and is determined for nine (9) bacteria, using nutrient agar, and seven (7) yeast and fungi, using malt yeast agar. This determination is conducted using a one percent solution of the test compound prepared in a mixture of acetone and water.
(§2) Nutrient agar is prepared at pH 6.8, representing a neutral medium, and at pH 8.2, representing an alkaline medium. The nutrient agars are prepared by adding 23 g of nutrient agar to one-liter of deionized water. In addition, the alkaline medium is prepared by adjusting a 0.04M solution of N-[tris-(hydroxymethyl)methyl]glycine buffered deionized water with concentrated sodium hydroxide to a pH of 8.5.
(§3) The test tubes containing the agar are cooled in a water bath until the temperature of the agar is 48° C. Then, an appropriate amount of the one percent solution of the test compound is added (except in the controls where no compound is added) to the respective test tubes so that the final concentrations are 500, […], 100, 50, 25, 10, 5, 2.5, 1.0 and zero parts per million of the test compound in the agar, thus having a known concentration of test compound dispersed therein. The contents of the test tubes are then transferred to respective petri plates. After drying for 24 hours, the petri plates containing nutrient agar are inoculated with bacteria and those containing malt yeast agar are inoculated with yeast and fungi.
(§4) The inoculation with bacteria is accomplished by using the following procedure. Twenty-four hour-cultures of each of the bacteria are prepared by incubating the respective bacteria in tubes containing nutrient broth for 24 hours at 30° C. in a shaker. Dilutions of each of the 24 hour-cultures are made so that nine separate suspensions (one for each of the nine test bacteria) are made, each containing 10^8 colony forming units (CFU) per mL of suspension of a particular bacteria. Aliquots of 0.3 mL of each of the bacterial suspensions are used to fill the individual wells of Steer's Replicator. For each microbial suspension, 0.3 mL was used to fill three wells (i.e., three wells of 0.3 mL each) so that for the nine different bacteria, 27 wells are filled. The Steer's Replicator is then used to inoculate both the neutral and alkaline pH nutrient agar petri plates.
(§5) The inoculated petri plates are incubated at 30° C. for 48 hours and then read to determine if the test compound which is incorporated into the agar prevented growth of the respective bacteria.

Aspergillus niger (An) = assay: Minimum inhibitory concentration (MIC) in malt yeast agar, Aspergillus niger
Experimental: as §1
(§6) Malt yeast agar is prepared at pH 5.5 by adding 3 g yeast extract and 45 g malt agar per liter of deionized water. The specific agar is dispensed in 30 mL aliquots into 25×200 mm test tubes, capped and autoclaved for 15 minutes at 115° C.
as §3
(§7) The inoculation with the yeast and fungi is accomplished as follows. Cultures of yeast and fungi are incubated for seven days on malt yeast agar at 30° C. These cultures are used to prepare suspensions by the following procedure. A suspension of each organism is prepared by adding 10 mL of sterile saline and 10 microliters of octylphenoxy polyethoxy ethanol to the agar slant of yeast or fungi. The sterile saline/octylphenoxy potyethoxy ethanol solution is then agitated with a sterile swab to suspend the microorganism grown on the slant. Each resulting suspension is diluted into sterile saline (1 part suspension: 9 parts sterile saline). Aliquots of these dilutions are placed in individual wells of Steer's Replicator and petri plates inoculated as previously described. The petri plates are incubated at 30° C. and read after 48 hours for yeast and 72 hours for fungi.

Proteus vulgaris (Pv) = assay: Minimum inhibitory concentration (MIC) in nutrient agar, Proteus vulgaris; details: 48 h
Experimental: as §1, §2, §3, §4, §5

[2] = system: Penicillium chrysogenum (Pc); assay: Minimum inhibitory concentration (MIC) in malt yeast agar, Penicillium chrysogenum; details: 72 h, pH 5.5, read-out: Minimum Inhibitory Concentration, PC
Experimental: as §1, §6, §3, §7

Fusarium oxysporum (Fo) = assay: Minimum inhibitory concentration (MIC) in malt yeast agar, Fusarium oxysporum
Experimental: as §1, §6, §3, §7

Candida albicans (Ca) = assay: Minimum inhibitory concentration (MIC) in malt yeast agar, Candida albicans; details: pH 5.5; malt yeast agar, 30° C., 48 hours for yeast; read-out: Minimum Inhibitory Concentration, Ca
Experimental: as §1, §6, §3, §7

[3] = system: Salmonella choleraesuis (Se); assay: Minimum inhibitory concentration (MIC) in nutrient agar, Salmonella choleraesuis; details: Salmonella enterica
Experimental: as §1, §2, §3, §4, §5

Trichoderma viride (Tv) = assay: Minimum inhibitory concentration (MIC) in malt yeast agar, Trichoderma viride; details: 72 h, pH 5.5, read-out: Minimum Inhibitory Concentration, Tv
Experimental: as §1, §6, §3, §7

[4] = system: Pseudomonas aeruginosa (Pa); assay: Minimum inhibitory concentration (MIC) in nutrient agar, Pseudomonas aeruginosa; details: 30° C., 48 hours, read-out: Minimum Inhibitory Concentration, Pa
Experimental: as §1, §2, §3, §4, §5

[5] = system: Staphylococcus aureus (Sa); assay: Minimum inhibitory concentration (MIC) in nutrient agar, Staphylococcus aureus
Experimental: as §1, §2, §3, §4, §5

[6] = system: Pseudomonas aeruginosa (PRD-10); assay: Minimum inhibitory concentration (MIC) in nutrient agar, Pseudomonas aeruginosa PRD-10; details: 48 h
Experimental: as §1, §2, §3, §4, §5

[7] = system: Enterobacter aerogenes (Ea); assay: Minimum inhibitory concentration (MIC) in nutrient agar, Enterobacter aerogenes; details: Klebsiella aerogenes, 48 h
Experimental: as §1, §2, §3, §4, §5

[8] = system: Saccharomyces cerevisiae (Sc); assay: Minimum inhibitory concentration (MIC) in malt yeast agar, Saccharomyces cerevisiae
Experimental: as §1, §6, §3, §7

Bacillus subtilis (Bs) = assay: Minimum inhibitory concentration (MIC) in nutrient agar, Bacillus subtilis
Experimental: as §1, §2, §3, §4, §5

[9] = system: Aureobasidium pullulan (Ap); assay: Minimum inhibitory concentration (MIC) in malt yeast agar, Aureobasidium pullulan
Experimental: as §1, §6, §3, §7

Escherichia coli (Ec) = assay: Minimum inhibitory concentration (MIC) in nutrient agar, Escherichia coli
Experimental: as §1, §2, §3, §4, §5

[10] = pH 6.8, read-out: Minimum Inhibitory Concentration, Pv
[11] = pH 8.2, read-out: Minimum Inhibitory Concentration, Pv
[12] = 48 h, pH 8.2, read-out: Minimum Inhibitory Concentration, SC
[13] = 48 h, pH 8.2, read-out: Minimum Inhibitory Concentration, Sa
[14] = pH 6.8, nutrient agar, 30° C., 48 hours, read-out: Minimum Inhibitory Concentration, Sa
[15] = pH 6.8, read-out: Minimum Inhibitory Concentration, PRD
[16] = pH 8.2, read-out: Minimum Inhibitory Concentration, PRD
[17] = pH 6.8, read-out: Minimum Inhibitory Concentration, Ea
[18] = pH 8.2, read-out: Minimum Inhibitory Concentration, Ea
[19] = 48 h, pH 8.2, read-out: Minimum Inhibitory Concentration, Bs
[20] = pH 6.8, nutrient agar, 30° C., 48 hours, read-out: Minimum Inhibitory Concentration, Bs
[21] = 48 h, pH 8.2, read-out: Minimum Inhibitory Concentration, Ec

SMILES	MIC (Proteus vulgaris (Pv); [10]) [mg/L]	MIC (Proteus vulgaris (Pv); [11]) [mg/L]	MIC [2] [mg/L]	MIC (Candida albicans (Ca)) [mg/L]	MIC [3, 12] [mg/L]	MIC (Trichoderma viride (Tv)) [mg/L]	MIC ([4]; pH 6.8, nutrient agar) [mg/L]	MIC ([4]; pH 8.2, nutrient agar) [mg/L]	MIC [5, 13] [mg/L]	MIC [5, 14] [mg/L]	MIC [6, 15] [mg/L]	MIC [6, 16] [mg/L]	MIC [7, 17] [mg/L]	MIC [7, 18] [mg/L]	MIC (Bacillus subtilis (Bs); [19]) [mg/L]	MIC (Bacillus subtilis (Bs); [20]) [mg/L]	MIC (Escherichia coli (Ec); [21]) [mg/L]	further results
N#CSc1nsnc1-c1ccc(Cl)cc1 [Example II, 4-(4-Chlorophenyl)-3-thiocyanato-1,2,5-thiadiazole]	> 500	> 500	< 10	< 10	500 (≈ 1970 µM)	< 10	> 500	500 (≈ 1970 µM)	500 (≈ 1970 µM)	250 (≈ 985 µM)	> 500	> 500	> 500	> 500	500 (≈ 1970 µM)	250 (≈ 985 µM)	> 500	MIC ([1]; 48 h, pH 6.8, read-out: Minimum Inhibitory Concentration, Kp): 50 mg/L (≈ 197 µM); MIC ([1]; pH 8.2, nutrient agar, 30° C., 48 hours, read-out: Minimum Inhibitory Concentration, Kp): 250 mg/L (≈ 985 µM); MIC (Aspergillus niger (An); pH 5.5, malt yeast agar, 30° C., 72 hours for fungi, read-out: Minimum Inhibitory Concentration, An): < 10 mg/L; MIC (Fusarium oxysporum (Fo); pH 5.5, malt yeast agar, 30° C., 72 hours for fungi, read-out: Minimum Inhibitory Concentration, Fo): < 10 mg/L; MIC ([3]; 48 h, pH 6.8, read-out: Minimum Inhibitory Concentration, SC): > 500 mg/L; MIC ([8]; pH 5.5, malt yeast agar, 30° C., 48 hours for yeast, read-out: Minimum Inhibitory Concentration, SC): < 10 mg/L; MIC ([9]; pH 5.5, malt yeast agar, 30° C., read-out: Minimum Inhibitory Concentration, Ap): < 10 mg/L; MIC (Escherichia coli (Ec); 48 h, pH 6.8, read-out: Minimum Inhibitory Concentration, Ec): 50 mg/L (≈ 197 µM)
N#CSc1nsnc1-c1ccccc1Cl [Example IV, 4-(2-Chlorophenyl)-3-thiocyanatol-1,2,5-thiadiazole]	> 500	500 (≈ 1970 µM)	10 (≈ 39.4 µM)	< 10	500 (≈ 1970 µM)	10 (≈ 39.4 µM)	> 500	500 (≈ 1970 µM)	500 (≈ 1970 µM)	25 (≈ 98.5 µM)	> 500	500 (≈ 1970 µM)	> 500	500 (≈ 1970 µM)	250 (≈ 985 µM)	< 10	500 (≈ 1970 µM)	MIC ([1]; 48 h, pH 8.2, read-out: Minimum Inhibitory Concentration, Kp): 500 mg/L (≈ 1970 µM); MIC ([1]; pH 6.8, nutrient agar, 30° C., 48 hours, read-out: Minimum Inhibitory Concentration, Kp): > 500 mg/L; MIC (Aspergillus niger (An); 72 h, pH 5.5, read-out: Minimum Inhibitory Concentration, An): 25 mg/L (≈ 98.5 µM); MIC (Fusarium oxysporum (Fo); 72 h, pH 5.5, read-out: Minimum Inhibitory Concentration, Fo): 5 mg/L (≈ 19.7 µM); MIC ([3]; pH 6.8, nutrient agar, 30° C., 48 hours, read-out: Minimum Inhibitory Concentration, SC): 100 mg/L (≈ 394 µM); MIC ([8]; 48 h, pH 5.5, read-out: Minimum Inhibitory Concentration, SC): 2.5 mg/L (≈ 9.85 µM); MIC ([9]; pH 5.5, read-out: Minimum Inhibitory Concentration, Ap): 5 mg/L (≈ 19.7 µM); MIC (Escherichia coli (Ec); pH 6.8, nutrient agar, 30° C., 48 hours, read-out: Minimum Inhibitory Concentration, Ec): 250 mg/L (≈ 985 µM)
